Among the data in ChEMBL document CHEMBL1938257, “Synthesis of monomeric derivatives to probe memoquin's bivalent interactions” (J Med Chem, 2011) are inhibition, Activity and IC50 values, retold here.

What is called inhibition is the change of the read-out against control, counted positive when it falls. By IC50 is commonly meant the concentration at which inhibition is half-maximal.

Active and inactive are the calls of the source. The calls are words filed in the database; no cut-off is given here.

In series [1] the target is T1, Beta-secretase 1 (Homo sapiens, UniProt P56817). The experiment in a line: Inhibition of recombinant BACE1 expressed in baculovirus system using panvera peptide as substrate at 3 uM after 60 mins by spectrofluorometric analysis.
T1 sequence (P56817 whole entry): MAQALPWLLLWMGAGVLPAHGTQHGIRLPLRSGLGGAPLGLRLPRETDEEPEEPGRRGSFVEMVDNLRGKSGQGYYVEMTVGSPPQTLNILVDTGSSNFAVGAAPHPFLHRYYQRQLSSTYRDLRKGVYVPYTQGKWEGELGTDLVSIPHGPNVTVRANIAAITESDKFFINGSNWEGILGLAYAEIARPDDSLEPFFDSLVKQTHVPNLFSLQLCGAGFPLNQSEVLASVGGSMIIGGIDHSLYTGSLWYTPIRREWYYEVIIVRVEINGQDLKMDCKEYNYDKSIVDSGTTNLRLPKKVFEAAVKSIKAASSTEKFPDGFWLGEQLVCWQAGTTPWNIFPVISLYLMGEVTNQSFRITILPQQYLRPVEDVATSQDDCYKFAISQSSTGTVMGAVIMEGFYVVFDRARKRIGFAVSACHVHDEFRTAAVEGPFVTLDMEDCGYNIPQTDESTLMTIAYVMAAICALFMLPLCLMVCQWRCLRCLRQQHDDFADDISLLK
Series [2] in a line: Neurotoxicity in chicken primary telencephalon neuron expressing APP assessed as reduction in neuronal viability at 50 uM after 24 hrs by MTT assay. Also on record: species or system Gallus gallus. (Formazan colour is commonly taken as a measure of viable cells.)
Series [3] has as its target T2, Acetylcholinesterase (Homo sapiens, UniProt P22303). The experiment in a line: Inhibition of human recombinant AChE using acetylthiocholine iodide as substrate after 20 mins preincubation by Ellman method. In general terms: DTNB colorimetry detects thiols as they appear.
Series [4] is described as follows: Inhibition of amyloid beta (1 to 42) self-aggregation assessed as fibril formation at 10 uM after 24 hrs by thioflavin T-based fluorometric assay.
The target of series [5] is Cholinesterase (Homo sapiens, UniProt P06276). The experiment in a line: Inhibition of human recombinant BuChE using butyrylthiocholine iodide as substrate after 20 mins preincubation by Ellman method.
Chain of Cholinesterase (P06276 whole entry): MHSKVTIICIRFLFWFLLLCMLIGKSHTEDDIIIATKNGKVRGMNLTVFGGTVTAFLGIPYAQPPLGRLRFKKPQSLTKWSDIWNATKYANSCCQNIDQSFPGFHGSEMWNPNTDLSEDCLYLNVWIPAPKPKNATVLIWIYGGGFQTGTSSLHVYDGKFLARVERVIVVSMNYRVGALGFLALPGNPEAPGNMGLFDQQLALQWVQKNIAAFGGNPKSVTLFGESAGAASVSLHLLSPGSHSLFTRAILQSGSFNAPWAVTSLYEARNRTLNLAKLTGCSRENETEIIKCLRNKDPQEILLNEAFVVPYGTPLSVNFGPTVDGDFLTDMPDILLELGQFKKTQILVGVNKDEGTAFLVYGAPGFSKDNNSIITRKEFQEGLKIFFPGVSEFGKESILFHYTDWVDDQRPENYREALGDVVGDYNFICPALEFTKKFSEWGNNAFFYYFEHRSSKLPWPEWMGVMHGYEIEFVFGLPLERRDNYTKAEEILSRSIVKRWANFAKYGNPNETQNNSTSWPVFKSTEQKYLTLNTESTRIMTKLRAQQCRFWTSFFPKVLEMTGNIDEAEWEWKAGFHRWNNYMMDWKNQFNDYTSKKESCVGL
Series [6] is described as follows: Neurotoxicity in chicken primary telencephalon neuron expressing APP assessed as reduction in neuronal viability at 25 uM after 24 hrs by MTT assay. Details: species or system Gallus gallus.
A short description of series [7]: Inhibition of gamma-secretase in chicken primary telencephalon neuron cells expressing APP assessed as inhibition of amyloid beta-40 production by electrochemiluminescence assay. The settings on record: Gallus gallus.
The nature of series [8]: Neurotoxicity in chicken primary telencephalon neuron expressing APP assessed as reduction in neuronal viability at 0.01 to 50 uM after 24 hrs by MTT assay. Also on record: species or system Gallus gallus.
Series [9] addresses T1, Beta-secretase 1. Description: Inhibition of recombinant BACE1 expressed in baculovirus system using M-2420 as substrate preincubated for 1 hr before substrate addition measured after 15 mins by spectrofluorometric analysis.
Series [10] in a line: Inhibition of gamma-secretase in chicken primary telencephalon neuron cells expressing APP assessed as inhibition of amyloid beta-42 production by electrochemiluminescence assay. The settings on record: Gallus gallus.
Series [11] has as its target T1, Beta-secretase 1. Description: Inhibition of recombinant BACE1 expressed in baculovirus system using panvera peptide as substrate after 60 mins by spectrofluorometric analysis.
The target in series [12] is T2, Acetylcholinesterase. Description: Inhibition of human recombinant AChE-induced amyloid beta (1-40) aggregation assessed as fibril formation after 24 hrs by thioflavin T-based fluorometric assay.
Series [13] addresses T2, Acetylcholinesterase. The experiment in a line: Inhibition of human recombinant AChE-induced amyloid beta 40 aggregation assessed as fibril formation at 100 uM after 24 hrs by thioflavin T-based fluorometric assay.
Series [14] is described as follows: Inhibition of gamma-secretase in chicken primary telencephalon neuron cells expressing APP assessed as inhibition of amyloid beta-38 production by electrochemiluminescence assay. The settings on record: Gallus gallus.

T2 sequence (P22303 whole entry): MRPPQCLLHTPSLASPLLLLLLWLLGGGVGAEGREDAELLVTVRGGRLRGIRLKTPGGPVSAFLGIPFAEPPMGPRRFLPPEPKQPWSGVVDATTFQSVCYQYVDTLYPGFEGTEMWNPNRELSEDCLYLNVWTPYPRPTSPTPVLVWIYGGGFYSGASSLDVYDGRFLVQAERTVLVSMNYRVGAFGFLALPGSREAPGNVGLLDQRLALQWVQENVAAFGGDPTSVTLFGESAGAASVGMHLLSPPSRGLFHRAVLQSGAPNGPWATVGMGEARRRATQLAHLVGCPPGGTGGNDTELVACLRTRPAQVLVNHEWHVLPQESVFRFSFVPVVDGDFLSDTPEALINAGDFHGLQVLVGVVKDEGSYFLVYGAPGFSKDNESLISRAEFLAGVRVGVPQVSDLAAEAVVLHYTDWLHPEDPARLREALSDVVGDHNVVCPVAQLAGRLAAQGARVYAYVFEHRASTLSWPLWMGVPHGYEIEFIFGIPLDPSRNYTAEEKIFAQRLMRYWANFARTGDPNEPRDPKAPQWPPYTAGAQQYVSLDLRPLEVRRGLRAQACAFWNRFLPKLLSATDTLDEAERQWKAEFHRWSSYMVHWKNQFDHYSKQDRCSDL

As for `CCN(CCCCCCNC1=CC(=O)C(OC)=CC1=O)Cc1ccccc1OC`, the inhibition in [1] came out at 32.8%; in series [4], 45.7%. In addition, in series [2], the Activity entry is “Toxic”. Besides, the IC50 in series [3] was 0.0653 µM; in series [5] it was 22.8 µM.
`NCCCCCCNC1=CC(=O)c2ccccc2C1=O`: in series [1], the inhibition entry is “inactive”. Further, the IC50 in series [3] worked out at 64.5 µM; in [5], 294 µM. Moreover, the inhibition in series [4] came out at 13.8%.
Consider `COC1=CC(=O)C(N2CCC(C3CCN(Cc4ccccc4OC)CC3)CC2)=CC1=O`, for which the results for the inhibition in [1] and in series [4] were 32.9% and 20.5%, respectively. For the same compound, the IC50 in series [3] is 24.4 µM; in series [5], 3.58 µM. Further, the Activity entry in series [6] was “Toxic”.
For the compound `CCN(CCCCCCNC1=CC(=O)c2ccccc2C1=O)Cc1ccccc1OC`, the inhibition was found to be 60.2% in series [1], 27.3% in [4] and 69.1% in series [13]. The half-maximal inhibitory concentration (IC50) in series [7] turned out to be 21 µM; in [9], 3 µM; in series [10] it was 46 µM; in series [11], 2.8 µM; in series [3], 0.00973 µM; in series [12], 45 µM. Further, the IC50 in series [14] is 19 µM; in [5], 1.49 µM. Also, the Activity entry in series [8] is “Non-toxic”.
Turning to `CCN(CCCCCCNC1=CC(=O)C(NCCCCCCN(CC)Cc2ccccc2OC)=CC1=O)Cc1ccccc1OC` [MEMOQUIN], the inhibition in series [1] is more than 80%; in series [4], 66.8%. Further, the half-maximal inhibitory concentration (IC50) in series [9] amounted to 4.6 µM; in series [5], 0.144 µM. For the same compound, the Activity entry in series [6] is “Toxic”.
As for `COc1ccccc1CN1CCC(N2CCC(NC3=CC(=O)c4ccccc4C3=O)CC2)CC1`, the inhibition result in series [1] is “inactive”. Moreover, the IC50 is 17.2 µM in [3] and 3.16 µM in [5]. In [4], the inhibition worked out at 21.4%.
Consider `CCN(CCCCCCNC1=CC(=O)C(C)=C(C)C1=O)Cc1ccccc1OC`, for which the inhibition came out at 12.8% in series [1], 30.2% in series [4] and 60.6% in series [13]. For the same compound, the half-inhibitory concentration (IC50) in series [3] was 0.029 µM; in series [5], 0.314 µM.
On to `CCN(CCCCCCNC1=CC(=O)c2ncccc2C1=O)Cc1ccccc1OC`, for which, in [1], the inhibition entry is “inactive”. For the same compound, the half-maximal inhibitory concentration (IC50) came out at 0.0279 µM in [3] and 2.56 µM in [5]. Also, the inhibition in series [4] was 15.4%; in [13] it was 41.3%.
For the compound `COc1ccccc1CNCCCCCCNC1=CC(=O)c2ccccc2C1=O`, in series [1], the inhibition result was “inactive”. In addition, the IC50 in [3] was 1.85 µM; in [5], 3.32 µM. Also, the inhibition in series [4] stood at 29.5%.
